In patent US6436929B1 (Wyeth, priority 1999, dated 2002):
Values joined by “and” are separate entries in the source; they are usually repeats but may differ in a detail not shown here. Equal entries are not always repeated. Each block holds one compound with its values, some of them ahead of it.

Columns and labels:
[1] = test system: rat uterine decidualization; assay: Rat decidualization assay; format: in vivo; conditions: s.c.; for Estimated average EC50: average over dose-response curves; for EC50: ovariectomized rats, uterine wet weight/decidual response, individual studies (Exp)
Protocol: The animals are treated once daily for seven days.
Uteri are removed and trimmed of fat.
Decidual response: [(D−C)/C]×100%

human PR = biological target: T1, human PR (Homo sapiens, UniProt P06401); assay: PRE-luciferase assay in CV-1 cells co-transfected with human PR and PRE-luciferase plasmids; format: cell-based; conditions: agonist mode, PRE-luciferase in CV-1 cells, Table 1; read-out: hPR CV-1 EC50
T1 construct: expressed in transfected cells; host or cells: CV-1 cells (electroporation with pLEM-hPR-B and pGL3-2xPRE-luciferase)
T1 sequence (P06401 1-933): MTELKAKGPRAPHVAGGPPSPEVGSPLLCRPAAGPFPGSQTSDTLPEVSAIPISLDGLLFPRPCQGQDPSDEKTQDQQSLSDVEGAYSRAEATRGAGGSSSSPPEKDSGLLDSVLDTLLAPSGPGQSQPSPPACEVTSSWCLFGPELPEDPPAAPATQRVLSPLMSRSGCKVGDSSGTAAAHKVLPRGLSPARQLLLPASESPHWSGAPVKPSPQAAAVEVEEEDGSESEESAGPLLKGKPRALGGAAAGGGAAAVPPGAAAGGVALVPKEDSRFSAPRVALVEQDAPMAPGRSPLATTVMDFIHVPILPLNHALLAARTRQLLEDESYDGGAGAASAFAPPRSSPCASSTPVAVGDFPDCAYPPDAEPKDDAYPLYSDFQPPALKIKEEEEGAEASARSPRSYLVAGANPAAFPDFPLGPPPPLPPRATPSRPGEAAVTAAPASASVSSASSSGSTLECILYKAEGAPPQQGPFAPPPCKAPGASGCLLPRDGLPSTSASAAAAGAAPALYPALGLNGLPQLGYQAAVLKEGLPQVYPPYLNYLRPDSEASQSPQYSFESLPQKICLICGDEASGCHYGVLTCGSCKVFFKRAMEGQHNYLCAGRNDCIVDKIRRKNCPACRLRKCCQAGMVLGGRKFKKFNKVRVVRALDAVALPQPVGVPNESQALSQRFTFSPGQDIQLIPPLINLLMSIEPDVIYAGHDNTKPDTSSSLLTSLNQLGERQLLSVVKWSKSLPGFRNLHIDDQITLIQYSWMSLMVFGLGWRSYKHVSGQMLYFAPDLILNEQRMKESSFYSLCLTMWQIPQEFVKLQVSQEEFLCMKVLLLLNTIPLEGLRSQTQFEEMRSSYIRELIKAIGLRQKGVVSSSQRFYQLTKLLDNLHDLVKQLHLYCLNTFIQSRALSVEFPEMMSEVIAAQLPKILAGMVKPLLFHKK
Protocol: The object of this assay is to determine a compound's progestational or antiprogestational potency based on its effect on PRE-luciferase reporter activity in CV-1 cells co-transfected with human PR and PRE-luciferase plasmids. The materials methods used in the assay are as follows.
Electroporation is carried out at 260 V and […] in a Biorad Gene Pulser II. After electroporation, cells are resuspended in growth medium and plated in 96-well plate at 40,000 cells/well in 200 μl. Following overnight incubation, the medium is changed to experimental medium Cells are then treated with reference or test compounds in experimental medium. […] Twenty-four hr. after treatment, the medium is discarded, cells are washed three times with D-PBS (GIBCO, BRL). Fifty μl of cell lysis buffer (Promega, Madison, Wis.) is added to each well and the plates are shaken for 15 min in a Titer Plate Shaker (Lab Line Instrument, Inc.).
Each treatment consists of at least 4 replicates. Log transformed data are used for analysis of variance and nonlinear dose response curve fitting for both agonist and antagonist modes. Huber weighting is used to downweight the effects of outliers. EC50 or IC50 values are calculated from the retransformed values.

Ovulation = Ovulation inhibition; format: in vivo; conditions: Table 1
T47D cells = assay: T47D cell proliferation assay (BrdU incorporation); format: cell-based; conditions: half-maximal increase in BrdU incorporation, individual studies (Exp)
Protocol: The objective of this assay is the determination of progestational and antiprogestational potency by using a cell proliferation assay in T47D cells. A compound's effect on DNA synthesis in T47D cells is measured.
DMEM:F12(1:1) (GIBCO, BRL) supplemented with 10% (v/v) fetal bovine serum (not heat-inactivated), 100 U/ml penicillin, […], and 2 mM GlutaMax (GIBCO, BRL).
Minimum Essential Medium (MEM) (#51200-038GIBCO, BRL) phenol red-free supplemented with 0.5% charcoal stripped fetal bovine serum, 100 U/ml penicillin, […] streptomycin, and 2 mM GlutaMax (GIBCO, BRL). […]
At the end of BrdU labeling, the medium is removed and BrdU incorporation is measured using a cell proliferation ELISA kit (#RPN 250, Amersham Life Science) according to manufacturer's instructions. […] Then 25 μl of 1 M sulfuric acid is added to each well to stop color reaction and optical density is read in a plate reader at 450 nm within 5 min.
Square root-transformed data are used for analysis of variance and nonlinear dose response curve fitting for both agonist and antagonist modes. […] EC50 or IC50 values are calculated from the retransformed values. […]

SMILES: C#C[C@]1(O)CC[C@H]2[C@@H]3CCC4=CC(=O)CC[C@@H]4[C@H]3C(=C)C[C@@]21CC [3-Ketodesogestrel]
- Estimated average EC50 [1]: 0.10 mg/kg
- EC50 [1]: 0.10 mg/kg and 0.06 mg/kg and 0.11 mg/kg

SMILES: CC1(C)OC(=S)Nc2ccc(-c3cccc(Cl)c3)cc21 [Compound 1, 6-(3-Chlorophenyl)-4,4-dimethyl-1,4-dihydro-benzo[d][1,3]oxazin-2-thione]
- melting point: 183 to 184 °C
- EC50 (human PR): 0.65 nM

SMILES: CC1(C)OC(=S)Nc2ccc(-c3csc(C#N)c3)cc21 [Compound 2, 4-(4,4-Dimethyl-2-thioxo-1,4-dihydro-2H-benzo[d][1,3]oxazin-6-yl)-thiophene-2-carbonitrile]
- melting point: 242 to 243 °C
- EC50 (human PR): 0.3 nM
- Ovulation Inhibition ED100 (Ovulation): 1 mg/kg

SMILES: CC1(C)OC(=S)Nc2ccc(-c3cc(F)cc(C#N)c3)cc21 [Compound 3, 3-(4,4-Dimethyl-2-thioxo-1,4-dihydro-2H-benzo[d][1,3]oxazin-6-yl)-5-fluorobenzonitrile]
- EC50 (human PR): 5.1 nM

SMILES: CC1(C)OC(=S)Nc2ccc(-c3sccc3C#N)cc21 [Example 66, 2-(4,4-Dimethyl-2-thioxo-1,4-dihydro-2H-3,1-benzoxazin-6-yl)thiophene-3-carbonitrile]
- melting point: 194 to 195 °C

Further lines, with some results ahead:

- Estimated average EC50 [1]: 0.10 mg/kg
SMILES: C#C[C@]1(O)CC[C@H]2[C@@H]3CCC4=CC(=O)CC[C@@H]4[C@H]3CC[C@@]21CC [Levonorgestrel]
- EC50 [1]: 0.08 mg/kg and 0.12 mg/kg and 0.09 mg/kg (2×)

- EC50 (T47D cells; Homo sapiens, T47D): 0.019 nM
SMILES: CC(=O)O[C@]1(C(C)=O)CC[C@H]2[C@@H]3C[C@H](C)C4=CC(=O)CC[C@]4(C)[C@H]3CC[C@@]21C [MPA, medroxyprogesterone acetate]

- EC50 (T47D cells): 0.017 nM and 0.014 nM and 0.019 nM
SMILES: C[C@H](O)C(=O)[C@@]1(C)CC[C@H]2[C@@H]3CCC4=CC(=O)CCC4=C3CC[C@@]21C [Trimegestone]
